From ChEMBL document CHEMBL1201862, “PubChem BioAssay data set” (2004)
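In this assay, cells in 96-well plates receive the compound at five concentrations for 48 hours. Endpoints are linearly interpolated between the surrounding concentrations. GI50 = concentration required for 50% inhibition of growth.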 Activity calls are given as the source filed them. Rule as the data show it: active = GI50 up to about 1.1 µM and inactive = higher.

Columns and labels:
Test in all cases: NCI tumour cell line growth inhibition, 48 h
786-0 = tested on: 786-0
A549 = tested on: A549
CCRF-CEM = tested on: CCRF-CEM
EKVX = tested on: EKVX
HCC 2998 = tested on: HCC 2998
HCT-116 = tested on: HCT-116
M14 = tested on: M14
Malme-3M = tested on: Malme-3M
NCI-H522 = tested on: NCI-H522
RXF 393 = tested on: RXF 393
SF-268 = tested on: SF-268
SF-539 = tested on: SF-539
SK-MEL-28 = tested on: SK-MEL-28
SK-MEL-2 = tested on: SK-MEL-2
SK-MEL-5 = tested on: SK-MEL-5
SK-OV-3 = tested on: SK-OV-3
SNB-19 = tested on: SNB-19
SW-620 = tested on: SW-620
TK-10 = tested on: TK-10
U-251 = tested on: U-251

Compound	GI50 (786-0)	GI50 (A549)	GI50 (CCRF-CEM)	GI50 (EKVX)	GI50 (HCC 2998)	GI50 (HCT-116)	GI50 (M14)	GI50 (Malme-3M)	GI50 (NCI-H522)	GI50 (RXF 393)	GI50 (SF-268)	GI50 (SF-539)	GI50 (SK-MEL-28)	GI50 (SK-MEL-2)	GI50 (SK-MEL-5)	GI50 (SK-OV-3)	GI50 (SNB-19)	GI50 (SW-620)	GI50 (TK-10)	GI50 (U-251)
CC(=O)O[C@H]1CC[C@@]2(C)C(=CC[C@H]3[C@@H]4C[C@H](N5CCN(C)CC5)[C@H](OC(C)=O)[C@@]4(C)CC[C@@H]32)C1	19.2 µM (inactive)	18.5 µM (inactive)	3.98 µM (inactive)	20.7 µM (inactive)	15.5 µM (inactive)	12.9 µM (inactive)	3.27 µM (inactive)	11.7 µM (inactive)	18.8 µM (inactive)	19.1 µM (inactive)	20 µM (inactive)	4.26 µM (inactive)	12.5 µM (inactive)	18 µM (inactive)	3.53 µM (inactive)	> 47.2 µM (inactive)	21.9 µM (inactive)	15.5 µM (inactive)	> 100 µM (inactive)	19.7 µM (inactive)
CN(C)CCCNC(=O)c1c(-c2cccnc2)cnc2ccccc12	> 100 µM (inactive)	> 100 µM (inactive)	> 100 µM (inactive)	> 100 µM (inactive)	> 100 µM (inactive)	> 100 µM (inactive)	> 100 µM (inactive)	> 100 µM (inactive)	> 100 µM (inactive)	> 100 µM (inactive)	> 100 µM (inactive)	> 100 µM (inactive)	> 100 µM (inactive)	> 100 µM (inactive)	61.9 µM (inactive)	> 100 µM (inactive)	> 100 µM (inactive)	> 100 µM (inactive)	> 100 µM (inactive)	> 100 µM (inactive)
CC(C)(C)C(=O)CC1=Nc2ccccc2SC1(O)CC(=O)C(C)(C)C (stereo not given)	23.4 µM (inactive)	20.5 µM (inactive)	8.49 µM (inactive)	16.2 µM (inactive)	14.8 µM (inactive)	24 µM (inactive)	29.8 µM (inactive)	33.3 µM (inactive)	13 µM (inactive)	23.5 µM (inactive)	25.8 µM (inactive)	22.9 µM (inactive)	22.8 µM (inactive)	13.7 µM (inactive)	18.9 µM (inactive)	13.5 µM (inactive)	35.6 µM (inactive)	25.5 µM (inactive)	64 µM (inactive)	22.2 µM (inactive)
CSC(=S)N(C)c1nc(N(C)C)s[s+]1	> 100 µM (inactive)	51.5 µM (inactive)	> 100 µM (inactive)	> 100 µM (inactive)	> 100 µM (inactive)	> 100 µM (inactive)	> 100 µM (inactive)	> 100 µM (inactive)	> 100 µM (inactive)	> 100 µM (inactive)	> 100 µM (inactive)	> 100 µM (inactive)	> 100 µM (inactive)	> 100 µM (inactive)	> 100 µM (inactive)	> 100 µM (inactive)	> 100 µM (inactive)	> 100 µM (inactive)	> 100 µM (inactive)	> 100 µM (inactive)
O=C(O)CSc1nnc(/C=C/c2ccccc2)[nH]1	> 100 µM (inactive)	> 100 µM (inactive)	> 100 µM (inactive)	> 100 µM (inactive)	> 100 µM (inactive)	> 100 µM (inactive)	> 100 µM (inactive)	> 100 µM (inactive)	> 100 µM (inactive)	> 100 µM (inactive)	> 100 µM (inactive)	> 100 µM (inactive)	> 100 µM (inactive)	> 100 µM (inactive)	> 100 µM (inactive)	> 100 µM (inactive)	> 100 µM (inactive)	> 57.5 µM (inactive)	> 100 µM (inactive)	> 100 µM (inactive)
CN1CCC(c2c(O)cc(O)c3c(=O)cc(-c4ccccc4Cl)oc23)C(O)C1 (stereo not given)	0.0498 µM (active)	0.0607 µM (active)	0.0271 µM (active)	< 0.0395 µM (active)	0.165 µM (active)	< 0.01 µM (active)	0.111 µM (active)	0.203 µM (active)	0.136 µM (active)	< 0.0149 µM (active)	0.0467 µM (active)	0.0929 µM (active)	0.0735 µM (active)	0.0323 µM (active)	0.0344 µM (active)	0.571 µM (active)	0.0526 µM (active)	0.0339 µM (active)	0.219 µM (active)	0.0615 µM (active)
